These results are taken from patent US20220023291A1, “COMPOSITIONS AND METHODS FOR REGULATING INFLAMMATION” (University of Virginia Patent Foundation, priority 2018, published 2022).

For one test, the target named is sigma-1 receptor (Homo sapiens, UniProt Q99720). The settings on record: cited from earlier work.
Test [1] relates to heparinized peripheral blood from healthy donors. The experiment in a line: Human whole blood stimulation ex vivo with LPS, multiplex cytokine analysis. The test is classed as cell-based. Particulars: 10 ng/mL LPS, 20 μM fluvoxamine, 4 hours. The protocol:
Human whole blood stimulation. Study participants were healthy adults (ages 18-45). The study was approved by the Institutional Review Board at the University of Virginia, and all participants signed informed consent before enrollment. Blood was collected into heparinized vacuum tube, then stimulated with 10 ng/mL LPS+/−20 μM fluvoxamine for 4 hours, as described (Thurm & Halsey, 2005). Cytokine concentrations were determined by multiplex analysis.

A further test deals with FIP sepsis model mice. The experiment in a line: Fecal induced peritonitis (FIP). The class given is in vivo, mouse. Particulars: for Survival: 1.5 g/kg fecal slurry. As to the method:
Fecal induced peritonitis (FIP). Fecal material was isolated from the caecum of age- and sex-matched WT animals coming from the UVA vivarium for FIGS. 10A-10D and 10L-10R or from Jackson Laboratory for FIGS. 12D-12O, resuspended in saline and passed through a […] strainer to remove large particles. The slurry was prepared fresh for each experiment. Core body temperature was measured and mice were scored with murine sepsis severity scale by two independent, blinded researchers (Shrum et al., 2014). Blood for serum ELISA was collected from facial vein at 3 hours post FIP induction. Where indicated, fluvoxamine in saline was administered intraperitoneally at a dose of 20 mg/kg, and ceftriaxone in saline was given at a dose of 100 mg/kg subcutaneously.

The next test relates to LPS challenged mice. The experiment in a line: In vivo LPS (endotoxin) challenge. More on the design: species or system mouse. The protocol: Endotoxin challenge. In vivo endotoxin challenge was performed on mice at 8-12 weeks of age. LPS from E. coli 0111:B4 (Sigma-Aldrich, L2630) was injected intraperitoneally as described in the manuscript. STF 083010 (Medchem Express, HY-15845) was resuspended in 33% Kolliphor-EL (Sigma, C5135) and administered intraperitoneally at 30 mg/kg immediately after and again 24 hours after LPS injection.
Peritoneal contents collection. Three hours after LPS injection, peritoneal cavities were washed with 2.5 mL of ice-cold PBS+5 mM EDTA, and then centrifuged to pellet cells. Supernatants were collected for ELISA, and the remaining cells were washed and stored as previously described (Gaultier et al., 2008).
LPS challenge. In vivo LPS challenge was performed on adult mice (8-12 weeks of age). LPS from E. coli 0111:B4 (Sigma-Aldrich, L2630) was injected intraperitoneally, as described in the manuscript. STF083010 (Medchem Express, HY-15845) was resuspended in 33% Kolliphor-EL (Sigma, C5135) and administered intraperitoneally at 30 mg/kg immediately after and again 24 hours after LPS injection. Fluvoxamine was resuspended in saline and administered at 20 mg/kg as indicated in the text. Blood for serum ELISA was collected from facial vein at the peak serum concentration of TNF-α and IL-6 (Copeland et al., 2005a).
Peritoneal exudates collection. Peritoneal cavities content were collected 3 hours after LPS injection in PBS+5 mM EDTA, then centrifuged to pellet cells. Supernatants were collected for ELISA, and cells were washed and stored as previously described (Gaultier et al., 2008).

For another test, the system named is HEK293 cells. The experiment in a line: Immunoblot for total IRE1 in HEK293 cells overexpressing IRE1 and S1R. The test is classed as cell-based. The settings on record: 5 μM lactacystin or 30 μM chloroquine, 6 hours. An excerpt: Western blot. […] Linear level adjustments were applied to entire images to enhance visualization.
Transfection of proteins for overexpression.
For orientation: Immunoblotting shows a protein as a band on a membrane.

Test [2] concerns the target T1, IRE1 endonuclease activity (Mus musculus, UniProt Q9EQY0).
T1 construct: We prepared bone marrow derived macrophages (BMDM) from WT and S1R KO mice; endogenous in cells; host or cells: primary mouse bone marrow derived macrophages (WT and S1R KO, C57BL/6J background)
The experiment in a line: XBP1 splicing ratio by qPCR in BMDM. The class given is cell-based. The protocol: (§1) Tissue culture conditions and Reagents. HEK293 cells, primary lung fibroblasts and BMDM were isolated and maintained as described (41-43). Cells were treated with LPS (Sigma, L4391), 4μ8C (Tocris, 4479), tunicamycin (Tocris, 3516), PD98059 (Medchem Express HY-12028), JSH-23 (Medchem Express, Hy-13982), SP600125 (Medchem Express, HY-12041), cycloheximide (Tocris, 0970), lactacystin (Cayman Chemical, 70980), chloroquine (Fisher, ICN19391925), and STF 083010 (Medchem Express, HY-15845) as described in the text.
cDNA synthesis and quantitative RT-PCR. Total RNA was extracted using an ISOLATE II RNA (Bioline, 52073) and cDNA synthesis was performed with the ISCRIPT™ kit (Bio-Rad, 170-8891). TaqMan Probes were obtained from Life Technologies (GAPDH: Mm99999915_g1; IL-6: Mm00446190_m1; pro-IL-1β: Mm00434228_m1; TNFα: Mm00443258_m1). Primers for IRE1 detection were GCACGUGAAUUGAUAGAGA (SEQ ID NO: 10) and UCUCUAUCAAUUCACGUGC (SEQ ID NO: 11). Primers for the detection of XBP1 were previously published (Lipson et al., 2008). RT-PCR was performed as described previously (Gaultier et al., 2009).
cDNA synthesis and quantitative PCR. Total RNA was extracted using an ISOLATE II RNA kit (Bioline, 52073) and cDNA synthesis was performed with the SENSIFAST™ cDNA synthesis kit (Bioline, BIO-65054). TaqMan Probes were obtained from Thermo Fisher (GAPDH: Mm99999915_g1; IL-6: Mm00446190_m1; pro-IL-1β: Mm00434228_m1; IL10: Mm004396). Primers for the detection of XBP1, IL-8, and actin were previously published (Vandesompele et al., 2002; Kumar & Valdivia, 2008; Girard et al., 2009). qPCR was performed as described previously (Gaultier et al., 2008).
(In qPCR the cycle at which signal appears reflects the starting amount.)

The subject of a further test is BMDM. The experiment in a line: IL-6 ELISA on supernatant of LPS-stimulated BMDM. The class given is cell-based, mouse. The settings on record: 1 μg/mL LPS, 6 hours; for Difference in LPS-induced IL-6 secretion between WT and S1R KO BMDM: 20 μM JSH-23, 20 μM PD98059, 1 μM SP600125, 5 μM 4μ8C; for LPS-induced IL-6 secretion: WT and S1R KO BMDM, 20 μM JSH-23, 20 μM PD98059, 1 μM SP600125. The protocol:
as §1
ELISA. ELISA for IL-6 and TNFα were performed as previously described (Remick et al., 2002). Antibodies used were: anti-mouse IL-6 MP5-20F3 (Biolegend, 504501) 0.5 μg/mL; biotin anti-mouse IL-6 MP5-32C11 (Biolegend, 504601) 1 μg/mL; anti-mouse TNFα (R&D systems, AF-410-NA) 0.5 μg/mL; biotin anti-mouse TNFα (R&D systems, BAF410) 0.25 μg/mL.
Tissue culture conditions and Reagents. HEK293 mTLR4/MD2/CD14 (Invivogen, 293-mtlr4md2cd14), primary lung fibroblasts, and BMDM were isolated and maintained as described (Zhang et al., 2008; Seluanov et al., 2010). Cells and animals were treated with LPS (Sigma, L4391), 4μ8C (Tocris, 4479), APY-29 (Medchem Express HY-17537), PD98059 (Medchem Express HY-12028), JSH-23 (Medchem Express, HY-13982), SP600125 (Medchem Express, HY-12041), STF 083010 (Medchem Express, HY-15845), Fluvoxamine (Medchem Express, HY-B0103A), and Ceftriaxone (Hospira, NDC: 0409-7337-01), as described in the text.
ELISA. ELISA for IL-6 and TNF-α were performed as previously described (Remick et al., 2002). Antibodies used were: anti-mouse IL-6 MP5-20F3 (Biolegend, 504501) 0.5 μg/mL; biotin anti-mouse IL-6 MP5-32C11 (Biolegend, 504601) 1 μg/mL; anti-mouse TNF-α (R&D systems, AF-410-NA) 0.5 μg/mL; biotin anti-mouse TNF-α (R&D systems, BAF410) 0.25 μg/mL.
For orientation: ELISA stands for enzyme-linked immunosorbent assay.

The mark [3] stands for this setting: treatment 90 min post FIP induction, fluvoxamine 20 mg/kg i.p. and/or ceftriaxone 100 mg/kg s.c.
[4] abbreviates: LPS 6 mg/kg, fluvoxamine 20 mg/kg at the same time as LPS.
Setting [5] is: LPS 2 mg/kg co-administered with STF 30 mg/kg.
Where [6] appears, read: LPS 2 mg/kg, STF 30 mg/kg i.p. at 0 hours and 24 hours.

Entries after “also recorded” stand apart in the source; their conditions may differ.

T1 sequence (Q9EQY0 21-977): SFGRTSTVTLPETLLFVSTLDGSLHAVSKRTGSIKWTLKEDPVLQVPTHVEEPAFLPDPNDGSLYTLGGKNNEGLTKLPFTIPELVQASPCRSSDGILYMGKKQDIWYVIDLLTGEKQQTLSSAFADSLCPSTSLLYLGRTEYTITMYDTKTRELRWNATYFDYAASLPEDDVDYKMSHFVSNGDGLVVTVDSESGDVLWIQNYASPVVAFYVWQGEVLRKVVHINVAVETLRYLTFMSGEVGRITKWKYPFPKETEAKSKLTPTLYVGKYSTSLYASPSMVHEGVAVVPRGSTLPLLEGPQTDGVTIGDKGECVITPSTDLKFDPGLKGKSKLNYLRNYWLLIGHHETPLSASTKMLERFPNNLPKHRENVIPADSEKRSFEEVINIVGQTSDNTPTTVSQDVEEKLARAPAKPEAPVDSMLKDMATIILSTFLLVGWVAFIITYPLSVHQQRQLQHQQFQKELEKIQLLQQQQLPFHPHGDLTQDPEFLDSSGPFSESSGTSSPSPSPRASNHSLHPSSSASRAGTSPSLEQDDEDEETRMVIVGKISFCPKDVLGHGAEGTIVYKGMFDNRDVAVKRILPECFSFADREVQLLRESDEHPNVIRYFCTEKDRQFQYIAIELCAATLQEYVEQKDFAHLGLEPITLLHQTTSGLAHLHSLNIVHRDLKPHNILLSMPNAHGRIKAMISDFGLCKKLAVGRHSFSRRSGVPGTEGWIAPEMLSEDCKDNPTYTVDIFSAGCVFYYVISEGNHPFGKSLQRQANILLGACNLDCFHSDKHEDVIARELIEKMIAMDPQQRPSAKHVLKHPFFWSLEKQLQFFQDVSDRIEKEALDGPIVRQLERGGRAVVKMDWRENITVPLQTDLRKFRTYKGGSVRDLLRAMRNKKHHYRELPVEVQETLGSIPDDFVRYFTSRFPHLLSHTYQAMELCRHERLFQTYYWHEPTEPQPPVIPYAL
sigma-1 receptor, sequence (Q99720 whole entry): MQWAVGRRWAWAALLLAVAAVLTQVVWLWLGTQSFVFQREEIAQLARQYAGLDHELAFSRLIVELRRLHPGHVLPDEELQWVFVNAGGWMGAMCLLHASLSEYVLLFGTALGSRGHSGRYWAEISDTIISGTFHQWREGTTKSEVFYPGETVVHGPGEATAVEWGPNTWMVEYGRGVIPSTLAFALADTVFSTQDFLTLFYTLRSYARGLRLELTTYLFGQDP

Regarding `COCCCC/C(=N\OCCN)c1ccc(C(F)(F)F)cc1` [fluvoxamine], on sigma-1 receptor, the “Affinity for / binding to sigma-1 receptor (S1R)” value is reported as “low-nanomolar affinity; also recorded: high affinity”. Moreover, in test [1], the “Breadth of modulation of inflammatory mediators (FIG. 14)” value is recorded as “limited to a subset of inflammatory mediators”, the IL-8 production entry is on record as “decreased”, the “LPS-induced IL-1β” value is “significantly reduced” and the “LPS-induced IL-6” value is listed as “significantly reduced”. For the same molecule, the “LPS-induced IL-12 p40” value in test [1] was “significantly reduced”. The Survival result in the test with FIP sepsis model mice (therapeutic fluvoxamine 30 min post FIP induction) is “significantly enhanced survival”. Besides, the Survival entry in the test on FIP sepsis model mice (setting [3]) is “as efficacious in enhancing survival as Ceftriaxone”. In addition, in the test with FIP sepsis model mice (C57BL/6J, 24 hours after FIP induction, fluvoxamine 30 min post FIP induction), the Rectal temperature result is reported as “improved”. Further, the “Clinical score (total murine sepsis score)” value in the test with FIP sepsis model mice (C57BL/6J, fluvoxamine 30 min post FIP induction) is recorded as “improved”. For the same molecule, the Rectal temperature entry with LPS challenged mice (C57BL/6J, 24 hours after LPS, fluvoxamine 90 min post LPS challenge) is “improved”. Besides, the “Clinical score (total murine sepsis score)” value with LPS challenged mice (C57BL/6J, LPS 6 mg/kg, fluvoxamine 90 min post LPS challenge) was “improved”. Further, the Survival result in the test with LPS challenged mice (C57BL/6J, LPS 6 mg/kg, therapeutic fluvoxamine 90 min post LPS challenge) is on record as “significantly enhanced survival”. Further, in the test with LPS challenged mice (setting [4]), the “Mortality of S1R KO animals” value was “no significant effect”, the “Mortality of WT mice” value was “significantly protected WT mice from mortality” and the “Serum IL-6 in S1R KO animals” value was “no significant effect”. Besides, the “Serum IL-6 in WT mice” value in the test on LPS challenged mice (LPS 6 mg/kg, fluvoxamine 20 mg/kg at the same time as LPS, 3 hours after LPS) was “reduced serum IL-6”.
For the molecule `CCN(CC)CCCC(C)Nc1ccnc2cc(Cl)ccc12` (stereo not shown) [chloroquine], in the test with HEK293 cells, the “Rescue of IRE1 protein levels in the presence of S1R overexpression” value is recorded as “Neither lactacystin nor chloroquine treatment could rescue IRE1 protein levels”.
For the molecule tunicamycin, in test [2] (S1R KO vs WT BMDM, 5 μM tunicamycin, 6 hours), the “XBP1 splicing after tunicamycin” value was “elevated XBP1 splicing in S1R KO BMDM”.
On to `CC(=O)N[C@@H](CSC(=O)[C@]1([C@@H](O)C(C)C)NC(=O)[C@H](C)[C@@H]1O)C(=O)O` [lactacystin], for which, in the test on HEK293 cells, the “Rescue of IRE1 protein levels in the presence of S1R overexpression” value is “Neither lactacystin nor chloroquine treatment could rescue IRE1 protein levels”.
Take `O=S(=O)(N=Cc1c(O)ccc2ccccc12)c1cccs1` [STF, N-[(2-Hydroxy-1-naphthalenyl)methylene]-2-thiophenesulfonamide]: in the test on BMDM (STF 083010 (60 μM) compared with 4μ8C (5 μM), FIG. 7A), the “Blocking IL-6 secretion in S1R KO BMDM stimulated with LPS” value is listed as “as effective as 4μ8C”. In the test on BMDM (BMDM, 20 μM STF), the “IRE1 inhibitor effectiveness (IL-6 ELISA, FIG. 11C)” value was “effective IRE1 inhibitor”. Moreover, in the test with LPS challenged mice (setting [5]), the “Median survival of S1R KO mice” value worked out at 113 h and the “Mortality of S1R KO mice” value stood at 62.5%. Also, in the test with LPS challenged mice (setting [6]), the “LPS induced mortality / survival of S1R KO mice” value is recorded as “largely rescued; also recorded: spared KO mice from LPS induced mortality; also recorded: clear benefit in S1R KO survival” and the “Survival of WT mice” value is “did not significantly affect the survival of WT mice”. Further, the “Serum IL-6” value in the test on LPS challenged mice (S1R KO mice, LPS 2 mg/kg, STF 30 mg/kg i.p., serum 3 hours after LPS) is recorded as “significantly decreased serum IL-6; also recorded: trend toward decreased IL-6”. Also, the “IL-6 in the peritoneal exudate” value in the test with LPS challenged mice (S1R KO mice, LPS 2 mg/kg, STF 30 mg/kg, 3 hours after LPS) was “corrected by STF treatment”.
Turning to `CO/N=C(\C(=O)N[C@@H]1C(=O)N2C(C(=O)O)=C(CSc3nc(=O)c(=O)[nH]n3C)CS[C@H]12)c1csc(N)n1` [Ceftriaxone], the Survival result in the test with FIP sepsis model mice (setting [3]) is “enhancing survival”.
In the case of `c1cc(Nc2cc(C3CC3)[nH]n2)nc(Nc2ccc3nc[nH]c3c2)n1` [APY29], the “XBP1 splicing amounts after forced IRE1 activation” value in test [2] (WT vs S1R KO BMDM, activator of IRE1, 6 hours) is given as “equal in both genotypes”.
Regarding `COc1cccc(-c2cc(=O)c3ccccc3o2)c1N` [PRESENTLY DISCLOSED 98059], in the test with BMDM, the “Difference in LPS-induced IL-6 secretion between WT and S1R KO BMDM” value is on record as “without altering the ability of S1R KO BMDM to produce more IL-6”; the “LPS-induced IL-6 secretion” value is reported as “significant decrease in IL-6 production”.
For the molecule `Cc1ccc(NCCCc2ccccc2)c(N)c1` [JSH-23], in the test on BMDM, the “Difference in LPS-induced IL-6 secretion between WT and S1R KO BMDM” value was “did not eliminate the difference”; the “LPS-induced IL-6 secretion” value is “reduced LPS-induced IL-6 secretion”.
